# How the values were obtained:
# L1210 = assay: Compound was evaluated for inhibitory activity against L-1210 leukemic cells in vitro; Range 1.8x10E-8 to 2x10E-7 M; format: functional; conditions: Mus musculus, read-out: ID50 (the source's name)
# P388 = assay: Compound was evaluated for inhibitory activity against P-388 leukemic cells in vitro; Range 1.8x10E-8 to 2x10E-7 M; format: functional; conditions: Mus musculus, read-out: ID50 (the source's name)
structure (smiles),measurement,setting,value
Cc1c(CNc2ccc(C(=O)NC(CCC(=O)O)C(=O)O)cc2)cnc2nc(N)nc(N)c12 (configuration not stated),IC50,L1210,200 nM
same,IC50,P388,200 nM

# Source: ChEMBL document CHEMBL1123525, “Synthesis and biological activities of 5-deaza analogues of aminopterin and folic acid” (1986)
